Patent US6992105B2, “Dipeptide derivatives” (Novartis AG, priority 2001, dated 2006)

Legend:
[1] = tested on: angiotensin I induced pressor response (ACE); test: inhibition of the angiotensin I induced pressor response in normotensive rats; assay type: in vivo, rat; conditions: 11.8 mg/kg p.o., conscious normotensive rats
Experimental: The in vivo test for i.v. administered compounds is performed with male, normotensive rats, which are conscious. A femoral artery and femoral vein are cannulated respectively for direct blood pressure measurement on i.v. administration of angiotensin I and i.v. or p.o. administration of a compound of this invention. After the basal blood pressure is stabilized, pressor responses to 3 or 4 challenges of 300 ng/kg angiotensin I i.v., at 15-minute intervals, are obtained. Such pressure responses are usually again obtained at 15, 30, 60 and 90 minutes, and then every hour up to 6 hours after i.v. or p.o. administration of the compound to be tested, and compared with the initial responses. Any observed decrease of said pressor response is an indication of ACE inhibition.

[2] = tested on: plasma ANF concentration (NEP inhibition); test: effect on rat plasma ANF concentration; assay type: in vivo; conditions: 11.8 mg/kg p.o., rats infused with ANF 450 ng/kg/min i.v.
Experimental: The effect of the compounds of the invention on rat plasma ANF concentration can be determined as follows:
Male Sprague-Dawley rats (275–390 g) are anesthetized with ketamine (150 mg/kg)/acepromazine (10%) and instrumented with catheters in the femoral artery and vein to obtain blood samples and infuse ANF, respectively. The rats are tethered with a swivel system and are allowed to recover for 24 hours before being studied in the conscious, unrestrained state.
In the assay, plasma ANF levels are determined in the presence and absence of NEP inhibition. On the day of study, all rats are infused continuously with ANF at 450 ng/kg/min. i.v. for the entire 5 hours of the experiment. Sixty minutes after beginning the infusion, blood samples for baseline ANF measurements are obtained (time 0) and the rats are then randomly divided into groups treated with the test compound or vehicle. Additional blood samples are taken 30, 60, 120, 180 and 240 minutes after administration of the test compound.
Plasma ANF concentrations are determined by a specific radioimmunoassay. […] The supernatant is decanted and the pellets counted in a gamma counter. […] Plasma ANF levels are expressed as a percent of those measured in vehicle-treated animals which received ANF alone (450 ng/kg/min. i.v.)

[3] = tested on: spontaneously hypertensive rat (SHR); test: anti-hypertensive activity in the spontaneously hypertensive rat (SHR); assay type: in vivo; conditions: conscious SHR, once daily administration of 11.8 mg/kg p.o.
Text: The anti-hypertensive activity can be determined, e.g., in the spontaneously hypertensive rat (SHR) and the DOCA-salt hypertensive rat, e.g., according to Bazil et al., J. Cardiovasc. Pharmacol., Vol. 22, pp. 897–905 (1993) and Trapani et al., J. Cardiovasc. Pharmacol., Vol. 14, pp. 419–424 (1989), respectively.

CCOC(=O)[C@H](COCc1ccccc1)NC(=O)C(C)(C)NC(=O)[C@@H](SC(C)=O)C(C)C [Example 1(a), N-[2-[(S)-2-Acetylthio-3-methylbutanoylamino]-2-methylpropionyl]-O-benzyl-L-serine ethyl ester]
duration of inhibition of the angiotensin I induced pressor response [1]: 6 h | increase of plasma ANF levels [2]: about 70% | effect on mean arterial pressure [3]: reduces mean arterial pressure
